According to publication PMC10239507, “Development of allosteric and selective CDK2 inhibitors for contraception with negative cooperativity to cyclin binding” (Nature Communications, 2023):

Key:
Test in all cases: biochemical
[1] = biological target: T1, 371 kinases (kinase named in each endpoint) (Homo sapiens, UniProt Q9UIK4); conditions: DAPK2
T1 construct: purchased Reaction Biology

[2] = biological target: T2, 371 kinases (kinase named in each endpoint) (Homo sapiens, UniProt P51451); conditions: BLK
T2 construct: purchased Reaction Biology

[3] = biological target: T3, 371 kinases (kinase named in each endpoint) (Homo sapiens, UniProt Q14680); conditions: MELK
T3 construct: purchased Reaction Biology

[4] = biological target: T4, 371 kinases (kinase named in each endpoint) (Homo sapiens, UniProt P05771); conditions: PKCB1
T4 construct: purchased Reaction Biology

[5] = biological target: T5, 371 kinases (kinase named in each endpoint) (Homo sapiens, UniProt Q9Y3S1); conditions: WNK2
T5 construct: purchased Reaction Biology

[6] = biological target: T6, 371 kinases (kinase named in each endpoint) (Homo sapiens, UniProt Q8IVT5); conditions: KSR1
T6 construct: purchased Reaction Biology

[7] = biological target: T7, 371 kinases (kinase named in each endpoint) (Homo sapiens, UniProt Q9H422); conditions: HIPK3
T7 construct: purchased Reaction Biology

[8] = biological target: T8, 371 kinases (kinase named in each endpoint) (Homo sapiens, UniProt P16234); conditions: PDGFRA
T8 construct: purchased Reaction Biology

[9] = biological target: T9, 371 kinases (kinase named in each endpoint) (Homo sapiens, UniProt Q9UEE5); conditions: DRAK1/STK17A
T9 construct: purchased Reaction Biology

[10] = biological target: T10, 371 kinases (kinase named in each endpoint) (Homo sapiens, UniProt P57078); conditions: RIPK4
T10 construct: purchased Reaction Biology

[11] = biological target: T11, 371 kinases (kinase named in each endpoint) (Homo sapiens, UniProt Q16620); conditions: TRKB
T11 construct: purchased Reaction Biology

[12] = biological target: T12, 371 kinases (kinase named in each endpoint) (Homo sapiens, UniProt Q02156); conditions: PKCEPSILON
T12 construct: purchased Reaction Biology

[13] = biological target: T13, 371 kinases (kinase named in each endpoint) (Homo sapiens, UniProt Q05397); conditions: FAK/PTK2
T13 construct: purchased Reaction Biology

[14] = biological target: T14, 371 kinases (kinase named in each endpoint) (Homo sapiens, UniProt O15530); conditions: PDK1/PDPK1
T14 construct: purchased Reaction Biology

[15] = biological target: T15, 371 kinases (kinase named in each endpoint) (Homo sapiens, UniProt Q9BXA6); conditions: SSTK/TSSK6
T15 construct: purchased Reaction Biology

[16] = biological target: T16, 371 kinases (kinase named in each endpoint) (Homo sapiens, UniProt Q6IQ55); conditions: TTBK2
T16 construct: purchased Reaction Biology

[17] = biological target: T17, 371 kinases (kinase named in each endpoint) (Homo sapiens, UniProt Q15139); conditions: PKCMU/PRKD1
T17 construct: purchased Reaction Biology

[18] = biological target: T18, 371 kinases (kinase named in each endpoint) (Homo sapiens, UniProt Q9UQB9); conditions: AURORA C
T18 construct: purchased Reaction Biology

[19] = biological target: T19, 371 kinases (kinase named in each endpoint) (Homo sapiens, UniProt Q9HAZ1); conditions: CLK4
T19 construct: purchased Reaction Biology

[20] = biological target: T20, 371 kinases (kinase named in each endpoint) (Homo sapiens, UniProt Q9P1W9); conditions: PIM2
T20 construct: purchased Reaction Biology

[21] = biological target: T21, 371 kinases (kinase named in each endpoint) (Homo sapiens, UniProt P23443); conditions: P70S6K/RPS6KB1
T21 construct: purchased Reaction Biology

[22] = biological target: T22, 371 kinases (kinase named in each endpoint) (Homo sapiens, UniProt P53667); conditions: LIMK1
T22 construct: purchased Reaction Biology

[23] = biological target: T23, 371 kinases (kinase named in each endpoint) (Homo sapiens, UniProt O60307); conditions: MAST3
T23 construct: purchased Reaction Biology

[24] = biological target: T24, 371 kinases (kinase named in each endpoint) (Homo sapiens, UniProt P35968); conditions: KDR/VEGFR2
T24 construct: purchased Reaction Biology

[25] = biological target: T25, 371 kinases (kinase named in each endpoint) (Homo sapiens, UniProt P54762); conditions: EPHB1
T25 construct: purchased Reaction Biology

[26] = biological target: T26, 371 kinases (kinase named in each endpoint) (Homo sapiens, UniProt P36507); conditions: MEK2
T26 construct: purchased Reaction Biology

[27] = biological target: T27, 371 kinases (kinase named in each endpoint) (Homo sapiens, UniProt Q92918); conditions: HPK1/MAP4K1
T27 construct: purchased Reaction Biology

[28] = biological target: T28, 371 kinases (kinase named in each endpoint) (Homo sapiens, UniProt O15264); conditions: P38D/MAPK13
T28 construct: purchased Reaction Biology

[29] = biological target: T29, 371 kinases (kinase named in each endpoint) (Homo sapiens, UniProt Q12866); conditions: C-MER
T29 construct: purchased Reaction Biology

[30] = biological target: T30, 371 kinases (kinase named in each endpoint) (Homo sapiens, UniProt Q9P0L2); conditions: MARK1
T30 construct: purchased Reaction Biology

[31] = biological target: T31, 371 kinases (kinase named in each endpoint) (Homo sapiens, UniProt P36897); conditions: ALK5/TGFBR1
T31 construct: purchased Reaction Biology

[32] = biological target: T32, 371 kinases (kinase named in each endpoint) (Homo sapiens, UniProt O43781); conditions: DYRK3
T32 construct: purchased Reaction Biology

[33] = biological target: T33, 371 kinases (kinase named in each endpoint) (Homo sapiens, UniProt Q08345); conditions: DDR1
T33 construct: purchased Reaction Biology

[34] = biological target: T34, 371 kinases (kinase named in each endpoint) (Homo sapiens, UniProt P51956); conditions: NEK3
T34 construct: purchased Reaction Biology

[35] = biological target: T35, 371 kinases (kinase named in each endpoint) (Homo sapiens, UniProt P41240); conditions: CSK
T35 construct: purchased Reaction Biology

[36] = biological target: T36, 371 kinases (kinase named in each endpoint) (Homo sapiens, UniProt P36888); conditions: FLT3
T36 construct: purchased Reaction Biology

[37] = biological target: T37, 371 kinases (kinase named in each endpoint) (Homo sapiens, UniProt Q9NR20); conditions: DYRK4
T37 construct: purchased Reaction Biology

T14 sequence (O15530 whole entry): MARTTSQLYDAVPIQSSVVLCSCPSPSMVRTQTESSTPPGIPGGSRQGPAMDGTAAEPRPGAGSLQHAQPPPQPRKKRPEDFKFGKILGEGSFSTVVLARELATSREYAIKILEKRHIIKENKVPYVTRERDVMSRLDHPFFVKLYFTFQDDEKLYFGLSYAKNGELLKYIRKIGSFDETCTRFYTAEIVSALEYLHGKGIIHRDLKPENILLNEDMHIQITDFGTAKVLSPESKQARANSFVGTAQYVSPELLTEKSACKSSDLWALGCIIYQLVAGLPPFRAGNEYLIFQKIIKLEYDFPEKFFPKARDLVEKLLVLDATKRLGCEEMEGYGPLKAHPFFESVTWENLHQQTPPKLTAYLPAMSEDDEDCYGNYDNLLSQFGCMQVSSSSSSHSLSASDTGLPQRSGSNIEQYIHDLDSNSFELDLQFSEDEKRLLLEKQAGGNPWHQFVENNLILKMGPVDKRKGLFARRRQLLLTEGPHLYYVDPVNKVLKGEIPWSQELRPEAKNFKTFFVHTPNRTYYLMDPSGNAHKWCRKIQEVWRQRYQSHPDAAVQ
T23 sequence (O60307 whole entry): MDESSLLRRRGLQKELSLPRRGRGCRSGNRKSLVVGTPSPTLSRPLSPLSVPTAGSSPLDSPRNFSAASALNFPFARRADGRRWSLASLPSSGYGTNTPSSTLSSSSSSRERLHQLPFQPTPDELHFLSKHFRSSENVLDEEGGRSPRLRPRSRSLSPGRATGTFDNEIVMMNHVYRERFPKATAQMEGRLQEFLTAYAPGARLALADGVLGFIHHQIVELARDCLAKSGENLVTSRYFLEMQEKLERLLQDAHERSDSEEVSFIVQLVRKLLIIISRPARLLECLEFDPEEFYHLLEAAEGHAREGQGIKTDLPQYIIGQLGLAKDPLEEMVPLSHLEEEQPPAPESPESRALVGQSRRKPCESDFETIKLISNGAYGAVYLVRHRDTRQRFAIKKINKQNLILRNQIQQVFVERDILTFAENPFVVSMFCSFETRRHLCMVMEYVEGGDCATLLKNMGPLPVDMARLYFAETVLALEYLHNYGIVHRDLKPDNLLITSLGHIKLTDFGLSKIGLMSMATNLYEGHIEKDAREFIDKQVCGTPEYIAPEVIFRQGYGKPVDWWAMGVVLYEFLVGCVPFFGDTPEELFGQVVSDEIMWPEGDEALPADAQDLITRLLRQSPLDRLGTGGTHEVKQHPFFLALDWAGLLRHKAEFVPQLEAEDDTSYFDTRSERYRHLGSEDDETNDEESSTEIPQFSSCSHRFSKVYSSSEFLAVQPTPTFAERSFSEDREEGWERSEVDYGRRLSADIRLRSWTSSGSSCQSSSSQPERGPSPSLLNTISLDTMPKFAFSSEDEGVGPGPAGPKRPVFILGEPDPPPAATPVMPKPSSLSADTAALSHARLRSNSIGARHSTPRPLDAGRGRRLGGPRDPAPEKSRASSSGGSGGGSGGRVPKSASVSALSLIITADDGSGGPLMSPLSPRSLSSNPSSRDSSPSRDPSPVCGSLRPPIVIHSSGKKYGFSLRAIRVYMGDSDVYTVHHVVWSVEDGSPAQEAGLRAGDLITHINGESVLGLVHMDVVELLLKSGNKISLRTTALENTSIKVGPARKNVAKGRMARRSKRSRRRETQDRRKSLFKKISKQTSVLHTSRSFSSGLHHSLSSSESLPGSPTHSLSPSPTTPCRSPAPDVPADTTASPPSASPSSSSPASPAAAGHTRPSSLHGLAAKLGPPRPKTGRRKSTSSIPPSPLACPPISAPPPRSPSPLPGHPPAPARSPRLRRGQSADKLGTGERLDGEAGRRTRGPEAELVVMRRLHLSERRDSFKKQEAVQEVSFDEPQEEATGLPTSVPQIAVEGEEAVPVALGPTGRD
T13 sequence (Q05397 whole entry): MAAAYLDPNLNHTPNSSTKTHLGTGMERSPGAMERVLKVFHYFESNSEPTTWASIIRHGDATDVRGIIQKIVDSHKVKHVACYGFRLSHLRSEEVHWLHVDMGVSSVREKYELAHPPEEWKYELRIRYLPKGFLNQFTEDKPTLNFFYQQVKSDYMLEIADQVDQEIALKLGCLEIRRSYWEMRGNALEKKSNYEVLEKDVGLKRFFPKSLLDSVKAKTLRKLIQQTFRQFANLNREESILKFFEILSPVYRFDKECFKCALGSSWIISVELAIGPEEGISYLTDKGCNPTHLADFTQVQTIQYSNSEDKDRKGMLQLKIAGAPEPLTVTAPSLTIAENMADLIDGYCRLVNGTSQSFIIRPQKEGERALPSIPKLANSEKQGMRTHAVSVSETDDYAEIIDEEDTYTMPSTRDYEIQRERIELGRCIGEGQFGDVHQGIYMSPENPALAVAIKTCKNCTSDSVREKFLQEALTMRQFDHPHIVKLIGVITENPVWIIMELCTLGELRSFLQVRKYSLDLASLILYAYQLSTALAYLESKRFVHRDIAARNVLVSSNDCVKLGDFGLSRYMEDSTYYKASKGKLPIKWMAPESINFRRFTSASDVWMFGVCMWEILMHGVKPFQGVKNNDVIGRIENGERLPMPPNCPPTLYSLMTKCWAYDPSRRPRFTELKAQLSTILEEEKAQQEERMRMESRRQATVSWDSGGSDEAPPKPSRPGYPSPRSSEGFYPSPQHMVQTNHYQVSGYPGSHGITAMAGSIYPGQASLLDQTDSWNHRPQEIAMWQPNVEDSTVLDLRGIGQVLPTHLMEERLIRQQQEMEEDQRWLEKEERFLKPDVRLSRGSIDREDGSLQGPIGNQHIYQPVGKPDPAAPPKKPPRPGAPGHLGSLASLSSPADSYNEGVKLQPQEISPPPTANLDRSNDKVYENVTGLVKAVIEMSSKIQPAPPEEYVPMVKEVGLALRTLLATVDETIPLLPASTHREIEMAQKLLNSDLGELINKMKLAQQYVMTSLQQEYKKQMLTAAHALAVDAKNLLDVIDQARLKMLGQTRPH
T32 sequence (O43781 whole entry): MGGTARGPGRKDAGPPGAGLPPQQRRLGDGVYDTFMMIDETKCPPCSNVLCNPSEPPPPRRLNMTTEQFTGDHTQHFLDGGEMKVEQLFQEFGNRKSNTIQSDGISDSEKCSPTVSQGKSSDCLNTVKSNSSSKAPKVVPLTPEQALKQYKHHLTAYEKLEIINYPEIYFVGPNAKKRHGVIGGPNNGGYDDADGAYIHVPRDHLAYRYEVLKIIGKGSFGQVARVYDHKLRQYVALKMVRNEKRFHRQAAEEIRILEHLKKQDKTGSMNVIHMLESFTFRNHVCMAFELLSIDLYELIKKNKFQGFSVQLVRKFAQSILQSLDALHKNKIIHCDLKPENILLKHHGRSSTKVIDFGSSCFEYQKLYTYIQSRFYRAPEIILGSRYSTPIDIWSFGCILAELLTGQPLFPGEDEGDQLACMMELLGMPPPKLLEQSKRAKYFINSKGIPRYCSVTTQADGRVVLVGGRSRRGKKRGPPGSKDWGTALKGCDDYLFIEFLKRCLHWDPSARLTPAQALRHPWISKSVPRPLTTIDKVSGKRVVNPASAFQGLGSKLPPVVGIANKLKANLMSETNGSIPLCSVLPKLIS
T33 sequence (Q08345 19-913): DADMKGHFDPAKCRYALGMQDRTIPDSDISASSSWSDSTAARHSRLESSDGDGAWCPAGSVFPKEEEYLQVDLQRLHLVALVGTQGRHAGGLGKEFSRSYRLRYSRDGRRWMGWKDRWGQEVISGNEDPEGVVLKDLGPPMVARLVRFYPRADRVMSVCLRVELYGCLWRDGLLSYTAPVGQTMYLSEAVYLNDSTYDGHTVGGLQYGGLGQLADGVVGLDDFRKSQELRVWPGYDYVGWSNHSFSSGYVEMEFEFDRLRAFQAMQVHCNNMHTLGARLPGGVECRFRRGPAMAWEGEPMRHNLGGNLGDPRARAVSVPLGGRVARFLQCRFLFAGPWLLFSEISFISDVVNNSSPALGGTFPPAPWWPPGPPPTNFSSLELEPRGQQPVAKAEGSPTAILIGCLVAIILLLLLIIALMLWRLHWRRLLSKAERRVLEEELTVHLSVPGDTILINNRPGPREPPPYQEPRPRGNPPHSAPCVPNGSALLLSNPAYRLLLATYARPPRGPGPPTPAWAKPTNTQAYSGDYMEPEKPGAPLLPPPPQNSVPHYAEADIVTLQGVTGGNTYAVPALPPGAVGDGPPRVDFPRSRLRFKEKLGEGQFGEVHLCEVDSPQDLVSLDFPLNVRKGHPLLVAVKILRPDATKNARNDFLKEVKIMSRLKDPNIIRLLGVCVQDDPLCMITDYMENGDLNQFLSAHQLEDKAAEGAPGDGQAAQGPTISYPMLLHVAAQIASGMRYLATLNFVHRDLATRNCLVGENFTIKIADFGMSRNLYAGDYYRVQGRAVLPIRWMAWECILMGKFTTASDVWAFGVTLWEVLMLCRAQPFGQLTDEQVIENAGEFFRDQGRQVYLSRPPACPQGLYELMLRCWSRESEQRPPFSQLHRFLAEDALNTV
T9 sequence (Q9UEE5 whole entry): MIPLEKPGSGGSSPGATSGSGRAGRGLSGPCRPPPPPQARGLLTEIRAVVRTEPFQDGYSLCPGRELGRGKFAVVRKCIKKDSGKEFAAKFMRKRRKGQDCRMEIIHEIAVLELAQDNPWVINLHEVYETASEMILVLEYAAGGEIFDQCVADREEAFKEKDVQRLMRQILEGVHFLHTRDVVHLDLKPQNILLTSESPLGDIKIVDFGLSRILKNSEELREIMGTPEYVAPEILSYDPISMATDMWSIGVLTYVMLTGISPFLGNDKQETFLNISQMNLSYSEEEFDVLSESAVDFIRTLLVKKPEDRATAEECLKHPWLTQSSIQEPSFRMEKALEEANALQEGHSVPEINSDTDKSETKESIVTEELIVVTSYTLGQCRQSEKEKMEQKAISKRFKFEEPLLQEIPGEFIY

O=C(O)c1cc(C(F)(F)F)ccc1NCCc1c[nH]c2cc(Br)ccc12 [Compound 5, 2-((2-(6-Bromo-1H-indol-3-yl)ethyl)amino)−5-(trifluoromethyl)benzoic Acid]
activity at 10 µM [1]: 78.8 ± 0.4%
activity at 10 µM [2]: 92.7 ± 1.3%
activity at 10 µM [3]: 95.8 ± 3%
activity at 10 µM [4]: 91%
activity at 10 µM [5]: 109.6 ± 0.2%
activity at 10 µM [6]: 92.9 ± 2.5%
activity at 10 µM [7]: 86.3 ± 2.3%
activity at 10 µM [8]: 86.9 ± 0.2%
activity at 10 µM [9]: 109 ± 2.6%
activity at 10 µM [10]: 45.4 ± 0.9%
activity at 10 µM [11]: 45.4 ± 7.4%
activity at 10 µM [12]: 96.1 ± 0.2%
activity at 10 µM [13]: 88.2 ± 1.5%
activity at 10 µM [14]: 97 ± 1%
activity at 10 µM [15]: 102 ± 3%
activity at 10 µM [16]: 105 ± 1.1%
activity at 10 µM [17]: 115.9 ± 0.9%
activity at 10 µM [18]: 98 ± 0.2%
activity at 10 µM [19]: 97.4 ± 0.8%
activity at 10 µM [20]: 92.4 ± 0.6%
activity at 10 µM [21]: 85.4 ± 0.7%
activity at 10 µM [22]: 84.2%
activity at 10 µM [23]: 94.9 ± 0.2%
activity at 10 µM [24]: 87.7 ± 1.6%
activity at 10 µM [25]: 91.2%
activity at 10 µM [26]: 110.4 ± 0.1%
activity at 10 µM [27]: 77.2 ± 0.7%
activity at 10 µM [28]: 80.9 ± 2.2%
activity at 10 µM [29]: 52.1 ± 1.5%
activity at 10 µM [30]: 93.3 ± 0.5%
activity at 10 µM [31]: 84.2 ± 0.1%
activity at 10 µM [32]: 57.3 ± 2.4%
activity at 10 µM [33]: 87.7 ± 0.4%
activity at 10 µM [34]: 93.3 ± 0.4%
activity at 10 µM [35]: 100.9 ± 0.9%
activity at 10 µM [36]: 95.2 ± 1.6%
activity at 10 µM [37]: 96.9 ± 2.5%
